Results published in patent publication EP4291552B1, “MODULATORS OF COMPLEX I” (Boehringer Ingelheim International GmbH, priority 2021, dated 2022).

Test system: mice neuroblastoma cells (HT-22)
Experiment: Determination of Cellular Protection (HT22)
Conditions: Mus musculus, HT-22, 16 h, read-out: HT22 IC50

Structure (SMILES)	IC50
CC(C)N1C(=O)/C(=C2/COCCN2)c2cc(NCC3CC3)ccc21 [Compound 58]	19 nM
CC(Nc1ccc2c(c1)/C(=C1\COCCN1)C(=O)N2C(C)C)c1ccncc1 (centres unmarked) [Compound 143]	110 nM
CC(C)N1C(=O)/C(=C2/COCCN2)c2cc(NC3COC3)ccc21 [Compound 98]	166 nM
CC(Nc1ccc2c(c1)/C(=C1\COCCN1)C(=O)N2C(C)C)C1CCC1 (centres unmarked) [Compound 37]	3 nM
O=C1/C(=C2/COCCN2)c2cc(NC3CCC3)ccc2N1C1CCOCC1 [Compound 132]	21 nM
CC(C)Nc1ccc2c(c1)/C(=C1\CCOCCN1)C(=O)N2C(C)C [Compound 82]	26 nM
CC1CCCC1Nc1ccc2c(c1)/C(=C1\COCCN1)C(=O)N2C(C)C (centres unmarked) [Compound 124]	15 nM
CC1CCC(C)N1c1ccc2c(c1)/C(=C1\COCCCN1)C(=O)N2C1CCOCC1 (centres unmarked) [Compound 142]	94 nM
CC(C)Nc1ccc2c(c1)C(=C1CCOCC1)C(=O)N2C(C)C [Compound 47]	85 nM
CC(C)Nc1ccc2c(c1)/C(=C1\COCCCN1)C(=O)N2C1CCOCC1 [Compound 167]	134 nM
CC(C)N1CCC2(CC1)CN/C(=C1\C(=O)N(C(C)C)c3ccc(N4CCCC4)cc31)CO2 [Compound 91]	9 nM
CC(C)C(C)Nc1ccc2c(c1)/C(=C1\COCCN1)C(=O)N2C(C)C (centres unmarked) [Compound 95]	6 nM
CC(C)N1C(=O)/C(=C2/COCCN2)c2cc(NC3CCN(C)CC3)ccc21 [Compound 38]	38 nM
CC(Nc1ccc2c(c1)/C(=C1\COCCN1)C(=O)N2C1COC1)C1CC1 (centres unmarked) [Compound 67]	37 nM
CN1C(=O)/C(=C2/CCN(C(=O)OCc3ccccc3)CCN2)c2cc(N3CCCC3)ccc21 [Compound 152]	47 nM
O=C1/C(=C2/COCCN2)c2cc(NCC3CCOC3)ccc2N1C1CCOCC1 (centres unmarked) [Compound 151]	184 nM
CC(C)N1C(=O)/C(=C2/COCCN2)c2cc(N3CCCC3)ccc21 [Compound 130]	45 nM
CC1CCN(c2ccc3c(c2)/C(=C2\COCCN2)C(=O)N3C2CCOCC2)CC1 [Compound 85]	264 nM
CC1OCCC1Nc1ccc2c(c1)/C(=C1\COCCN1)C(=O)N2C1CCOCC1 (centres unmarked) [Compound 174]	143 nM
O=C1/C(=C2/COCCN2)c2cc(NC3CCCC3)ccc2N1C1COCCOC1 [Compound 50]	13 nM
CC(C)Nc1ccc2c(c1)/C(=C1\COCCN1)C(=O)N2C1CCOCC1 [Compound 3]	71 nM

Structure (SMILES)	IC50
CC(C)N1C(=O)/C(=C2/COCCN2)c2cc(NC3CCOCC3)ccc21 [Compound 36]	56 nM
O=C1/C(=C2/CC3(CN2)COC3)c2cc(NC3CCOC3)ccc2N1C1CCOCC1 (centres unmarked) [Compound 70]	1150 nM
CC(C)Nc1ccc2c(c1)/C(=C1\CN(C(C)C)CCN1)C(=O)N2C1CCOCC1 [Compound 46]	48 nM
CC(C)Nc1ccc2c(c1)/C(=C1\COCCN1)C(=O)N2C1COC1 [Compound 135]	158 nM
CC(Nc1ccc2c(c1)/C(=C1\COCCN1)C(=O)N2C(C)C)c1ccccn1 (centres unmarked) [Compound 71]	131 nM
O=C1C(=C2CCOCC2)c2cc(N3CCCC3)ccc2N1C1CCOCC1 [Compound 112]	86 nM
O=C1/C(=C2/COCCN2)c2cc(NC3COC3)ccc2N1C1CCOCC1 [Compound 175]	1190 nM
CC(C)CNc1ccc2c(c1)/C(=C1\COCCN1)C(=O)N2C(C)C [Compound 173]	32 nM
CC(C)Nc1ccc2c(c1)/C(=C1\CN(C(C)C)CCN1)C(=O)N2C1CCN(C(C)C)CC1 [Compound 8]	41 nM
CN(C)c1ccc2c(c1)/C(=C1\CCCCN1)C(=O)N2C [Compound 62]	162 nM
CC(Nc1ccc2c(c1)/C(=C1\COCCN1)C(=O)N2C(C)C)C1CCCC1 (centres unmarked) [Compound 56]	2 nM
Nc1ccc2c(c1)/C(=C1\COCCN1)C(=O)N2C1CCOCC1 [Compound 35]	2720 nM
CCC(CC)Nc1ccc2c(c1)/C(=C1\COCCN1)C(=O)N2C1COC1 [Compound 136]	18 nM
CC(Nc1ccc2c(c1)/C(=C1\COCCN1)C(=O)N2C1CCOCC1)c1ccccn1 (centres unmarked) [Compound 77]	48 nM
CC(C)Nc1ccc2c(c1)/C(=C1\CN(C(C)C)CCN1)C(=O)N2C(C)C [Compound 88]	10 nM
CN(C)c1ccc2c(c1)/C(=C1\CCOCCN1)C(=O)N2C [Compound 41]	983 nM
O=C1/C(=C2/COCCN2)c2cc(N3CCOCC3)ccc2N1C1CCOCC1 [Compound 4]	3140 nM
O=C1/C(=C2/COCCN2)c2cc(NC3CCOCC3)ccc2N1C1CCOCC1 [Compound 18]	409 nM
CC1CCC(C)N1c1ccc2c(c1)/C(=C1\COCCN1)C(=O)N2C1CCOCC1 (centres unmarked) [Compound 156]	71 nM
CC(C)N1C(=O)/C(=C2/COCCN2)c2cc(NC(C)C(C)(C)C)ccc21 (centres unmarked) [Compound 55]	38 nM
COC1COCCC1Nc1ccc2c(c1)/C(=C1\COCCN1)C(=O)N2C(C)C (centres unmarked) [Compound 16]	693 nM

Structure (SMILES)	IC50
CN1CCC/C1=C1/C(=O)N(C2CCOCC2)c2ccc(NC3CCC3)cc21 [Compound 9]	38 nM
CC(C)C(C)Nc1ccc2c(c1)/C(=C1\COCCN1)C(=O)N2C1COCCOC1 (centres unmarked) [Compound 27]	15 nM
CC(=O)N1CCC2(CC1)CN/C(=C1\C(=O)N(C(C)C)c3ccc(NC(C)C)cc31)CO2 [Compound 34]	49 nM
CC(Nc1ccc2c(c1)/C(=C1\COCCN1)C(=O)N2C1CCOCC1)C1CCC1 (centres unmarked) [Compound 148]	16 nM
CC(C)N1C(=O)/C(=C2/COCCN2)c2cc(NC3CCOCC3F)ccc21 (centres unmarked) [Compound 73]	264 nM
CC(C)N1C(=O)C(=C2CCOCC2)c2cc(NC3CCOC3)ccc21 (centres unmarked) [Compound 160]	471 nM
CC(C)N1C(=O)C(=C2CCOCC2)c2cc(NC3CCCC3)ccc21 [Compound 116]	9 nM
CC1CCCC1Nc1ccc2c(c1)/C(=C1\COCCN1)C(=O)N2C1CCOCC1 (centres unmarked) [Compound 102]	3 nM
CN1CCC(Nc2ccc3c(c2)/C(=C2\COCCN2)C(=O)N3C2CCOCC2)CC1 [Compound 150]	286 nM
CC(=O)N1CCN/C(=C2\C(=O)N(C(C)C)c3ccc(NC(C)C)cc32)C1 [Compound 159]	80 nM
CC(C)N1CCC(Nc2ccc3c(c2)/C(=C2\COCCN2)C(=O)N3C(C)C)CC1 [Compound 96]	41 nM
CC(Nc1ccc2c(c1)/C(=C1\COCCN1)C(=O)N2C1CCOCC1)c1cncnc1 (centres unmarked) [Compound 147]	422 nM
CN1C(=O)/C(=C2/CCNCCN2)c2cc(N3CCCC3)ccc21 [Compound 40]	13 nM
O=C1/C(=C2/COCCN2)c2cc(NC3CCOC3)ccc2N1C1CCOC1 (centres unmarked) [Compound 168]	439 nM
O=C1/C(=C2/COCCN2)c2cc(NC3CCOCC3F)ccc2N1C1CCOCC1 (centres unmarked) [Compound 80]	345 nM
CC(C)N1CCC(Nc2ccc3c(c2)/C(=C2\COCCN2)C(=O)N3C2CCOCC2)CC1 [Compound 19]	168 nM
CC1OCCC1Nc1ccc2c(c1)/C(=C1\COCCN1)C(=O)N2C(C)C (centres unmarked) [Compound 125]	112 nM
CC(C)Nc1ccc2c(c1)/C(=C1\CCCCN1)C(=O)N2C(C)C [Compound 133]	23 nM
O=C1/C(=C2/COCCN2)c2cc(NCc3cc[nH]n3)ccc2N1C1CCOCC1 [Compound 21]	253 nM
COCC(C)N1C(=O)/C(=C2/COCCN2)c2cc(NC(C)C)ccc21 (centres unmarked) [Compound 28]	118 nM
